The values below come from patent US20230277569A1, “Compositions and Methods for Treating, Ameliorating and/or Preventing Cancer and Kits for the Same” (priority 2022, published 2023).

In one series the test system is beagle dogs. Put plainly: Electrocardiography studies in beagle dogs. Format: in vivo. The protocol: At each time point, eight-lead ECGs were continuously recorded for at least 30 sec. At least five consecutive ECG waveforms and the associated RR intervals deemed most representative were selected for quantitative analysis at each time point. The ECG interval measurements (PR, QRS, QT, QTc, RR, and heart rate) were made on a single lead. The measured waveforms at each time point were averaged and reported. The QTc interval was calculated using the Fridericia (QT/[RR]^1/3) method. The RR interval was used to derive the heart rate and in QT interval correction. Qualitative assessments included normal sinus rhythm variations, abnormal sinus rhythms, conductance or repolarization abnormalities, bradycardia, and tachycardia. Group comparisons of ECG data (PR, QRS, QT, QTc, and heart rate) were analyzed using ANOVA.

The next series concerns the target Human Kv4.3/KChIP2 (Homo sapiens, UniProt Q9UK17). The series can be described thus: Ion channel screening, Kv4.3/KChIP2. Format: cell-based. The settings on record: n=13, read-out: inhibition of Kv4.3/KChIP2 currents.
Series [1] can be described thus: Stability in human plasma. Format: in vitro ADME.
Series [2] is described as follows: Phase I, cytochrome P450-mediated human liver microsome metabolism.
For a further series, the system named is tumor. The note with it: cited from earlier work.
Series [3] is described as follows: Stability and particle size distribution of Gamitrinib Injectable Suspension (GIS). The series is classed as physicochemical. The protocol: A sequential three-step process was utilized to prepare Good Laboratory Practice (GLP) working solutions of Gamitrinib (5 mg/mL) for preclinical studies. The formulation workflow is as follows: Step 1—Solubilization of Gamitrinib powder in DMSO (2.5%); […] Step 3—Dilution in 5% dextrose (87.5%). […] For Good Manufacturing Practice (GMP) studies, a Gamitrinib Injectable Suspension (GIS) was prepared by microfluidization. Gamitrinib stock solutions prepared as above were passed through a microfluidizer (Dyhydromatics, Acton, Mass.) with rate of flow set at low, medium, and high. At the end of GIS processing, microfluidization was continued at reduced pressure (2000 psi) for 1-2 min. […] Gamitrinib is formulated using a three-step dilution process described in the Materials and Methods section. A sterile, Gamitrinib Injectable Suspension (GIS) is prepared for clinical use using microfluidization with the schematic flowchart shown in FIG. 5B.

Another series addresses Human Kv1.5 (Homo sapiens, UniProt P22460). The series can be described thus: Ion channel screening, Kv1.5. Format: cell-based. The settings on record: n=15, read-out: inhibition of Kv1.5 currents.
Series [4] concerns the target T1, hERG (Homo sapiens, UniProt Q12809).
T1 construct: expressed in transfected cells; host or cells: HEK293 (ATCC), polyclonal, stably transfected, G418 selection
The series can be described thus: Patch clamp recording of hERG currents in transfected HEK293 cells. Format: cell-based. As to the method:
Caco-2 and HEK293 cells were obtained from the American Type Culture Collection (ATCC, Manasass, Va.) and grown in culture according to the supplier's specifications. In some experiments, HEK293 cells were stably transfected with hERG cDNA and polyclonal cultures were maintained in the presence of 250 μg/ml geneticin (G418).
For electrophysiology recording, a micropipette was pulled from borosilicate glass with the pipette tip resistance between 3˜5 MΩ. For each experiment, polyclonal HEK293 cells stably transfected with hERG cDNA and maintained in 250 μg/ml Geneticin (G418) were plated on 35 mm dishes on the microscope stage and a commercial patch clamp amplifier was used for the whole cell recordings. The tail currents were evoked at 22° C. once every 30 sec by a 3 sec-50 mV repolarizing pulse following a 2 sec+50 mV depolarizing pulse with a hold voltage of −80 mV. A 50 msec depolarized pulse to −50 mV at the beginning of the voltage protocol served as a baseline for calculating the amplitude of the peak tail current. The hERG currents were allowed to stabilize over a 3 min period in the presence of vehicle alone prior to Gamitrinib application. The cells were kept in the test solution until the peak tail current was stable (<5% change) for ˜5 sweeps or for a maximum of 6 min, whichever came first. Peak tail amplitudes were plotted as a function of the sweep number. Five peak tail current measurements at the steady state before Gamitrinib application were averaged and used as the control current amplitude. Four or five peak tail current measurements at the steady state after Gamitrinib application were averaged and used as the remaining current amplitude after inhibition by the test article. The % inhibition of the test article was calculated from the following equation: […]

Another series has as its target CYP2B6 (Homo sapiens, UniProt P20813). Put plainly: CYP inhibition in liver microsomes, CYP2B6. Format: in vitro ADME. The settings on record: human liver microsomes 0.1 mg/mL. In general terms: Liver microsomes are vesicles of endoplasmic reticulum, rich in cytochrome P450 enzymes.
Series [5] has as its target T1, hERG. The series can be described thus: Ion channel screening, hERG. The note with it: n=16, read-out: inhibition of hERG currents (ion channel screening). The series is classed as cell-based. (In general: Block of hERG is tested as a sign of cardiac risk.)
From the text: The parameter measured was the maximum outward current evoked on stepping to +60 mV from the holding potential of −80 mV. hERG currents were evoked by a three-pulse protocol where voltage was first stepped to +40 mV for two sec from a holding potential of −80 mV to inactivate hERG channels. The voltage is then stepped back to −50 mV for two sec to evoke a tail current prior to returning to the holding potential for 1 sec. The parameter measured was the amplitude of the 3rd pulse tail current upon stepping back to −50 mV after the step to +40 mV. Human HCN4 currents were evoked by a single pulse from a holding potential of −30 mV to a potential of −110 mV for 4 sec prior to returning to −30 mV. The parameter measured was the maximum inward current evoked upon stepping to −110 mV from the holding potential of −30 mV. Human Kir2.1 currents were evoked from a holding potential of −20 mV by a series of 10 500 msec pulses to −120 mV using a 200 msec interval between pulses. The parameters measured were the amplitudes of the instantaneous inward currents evoked on stepping to −120 mV for the 1st pulse and the maximum inward current at the end of the 10th hyperpolarizing pulse. For all experiments, data were filtered for seal quality, seal drop, and current amplitude.

The structures appear in SMILES notation.

T1 sequence (Q12809 whole entry): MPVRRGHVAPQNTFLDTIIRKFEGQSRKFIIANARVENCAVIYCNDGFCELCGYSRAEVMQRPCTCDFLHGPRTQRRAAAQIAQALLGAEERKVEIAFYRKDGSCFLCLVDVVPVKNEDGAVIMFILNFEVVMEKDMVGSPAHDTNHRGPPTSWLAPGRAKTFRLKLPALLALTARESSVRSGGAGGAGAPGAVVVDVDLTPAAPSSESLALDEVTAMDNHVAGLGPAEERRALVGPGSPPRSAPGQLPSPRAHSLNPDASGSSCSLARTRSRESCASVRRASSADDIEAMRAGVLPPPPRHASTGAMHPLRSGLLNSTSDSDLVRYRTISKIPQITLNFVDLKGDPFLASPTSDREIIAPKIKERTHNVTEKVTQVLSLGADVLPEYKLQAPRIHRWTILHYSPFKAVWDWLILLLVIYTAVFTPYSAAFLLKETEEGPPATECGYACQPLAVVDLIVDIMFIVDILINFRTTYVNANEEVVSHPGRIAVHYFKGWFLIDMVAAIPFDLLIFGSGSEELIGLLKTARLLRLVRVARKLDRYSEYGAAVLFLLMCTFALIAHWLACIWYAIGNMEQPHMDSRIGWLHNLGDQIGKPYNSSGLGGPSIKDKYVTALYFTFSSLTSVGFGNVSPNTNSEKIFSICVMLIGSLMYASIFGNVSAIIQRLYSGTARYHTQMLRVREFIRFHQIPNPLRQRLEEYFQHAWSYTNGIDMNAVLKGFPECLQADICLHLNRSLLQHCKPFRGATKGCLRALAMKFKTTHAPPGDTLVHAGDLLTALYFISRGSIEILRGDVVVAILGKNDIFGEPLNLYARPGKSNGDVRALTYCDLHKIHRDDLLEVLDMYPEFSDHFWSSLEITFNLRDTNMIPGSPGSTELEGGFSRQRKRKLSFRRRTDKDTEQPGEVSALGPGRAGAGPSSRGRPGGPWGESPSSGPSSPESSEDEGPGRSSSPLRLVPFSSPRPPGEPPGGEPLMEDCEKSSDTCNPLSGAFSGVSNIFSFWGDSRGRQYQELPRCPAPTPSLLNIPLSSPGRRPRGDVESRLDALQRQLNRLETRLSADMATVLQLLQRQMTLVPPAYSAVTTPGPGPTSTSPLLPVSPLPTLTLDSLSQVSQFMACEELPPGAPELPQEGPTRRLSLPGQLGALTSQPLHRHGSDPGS
Sequence of CYP2B6 (P20813 whole entry): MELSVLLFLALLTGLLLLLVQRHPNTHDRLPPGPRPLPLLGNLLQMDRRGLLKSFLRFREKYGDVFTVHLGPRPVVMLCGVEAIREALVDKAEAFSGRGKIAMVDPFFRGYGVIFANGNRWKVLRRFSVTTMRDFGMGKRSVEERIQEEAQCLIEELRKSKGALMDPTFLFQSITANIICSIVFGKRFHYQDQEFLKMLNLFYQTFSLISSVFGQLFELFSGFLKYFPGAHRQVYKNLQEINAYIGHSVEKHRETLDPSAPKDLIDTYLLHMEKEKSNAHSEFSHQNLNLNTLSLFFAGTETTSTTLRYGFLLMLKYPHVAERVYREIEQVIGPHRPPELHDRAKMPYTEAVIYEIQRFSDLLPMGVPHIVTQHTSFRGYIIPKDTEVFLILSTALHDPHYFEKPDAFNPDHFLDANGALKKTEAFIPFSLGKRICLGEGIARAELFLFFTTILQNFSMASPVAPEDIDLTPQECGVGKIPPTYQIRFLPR
Sequence of Human Kv4.3/KChIP2 (Q9UK17 whole entry): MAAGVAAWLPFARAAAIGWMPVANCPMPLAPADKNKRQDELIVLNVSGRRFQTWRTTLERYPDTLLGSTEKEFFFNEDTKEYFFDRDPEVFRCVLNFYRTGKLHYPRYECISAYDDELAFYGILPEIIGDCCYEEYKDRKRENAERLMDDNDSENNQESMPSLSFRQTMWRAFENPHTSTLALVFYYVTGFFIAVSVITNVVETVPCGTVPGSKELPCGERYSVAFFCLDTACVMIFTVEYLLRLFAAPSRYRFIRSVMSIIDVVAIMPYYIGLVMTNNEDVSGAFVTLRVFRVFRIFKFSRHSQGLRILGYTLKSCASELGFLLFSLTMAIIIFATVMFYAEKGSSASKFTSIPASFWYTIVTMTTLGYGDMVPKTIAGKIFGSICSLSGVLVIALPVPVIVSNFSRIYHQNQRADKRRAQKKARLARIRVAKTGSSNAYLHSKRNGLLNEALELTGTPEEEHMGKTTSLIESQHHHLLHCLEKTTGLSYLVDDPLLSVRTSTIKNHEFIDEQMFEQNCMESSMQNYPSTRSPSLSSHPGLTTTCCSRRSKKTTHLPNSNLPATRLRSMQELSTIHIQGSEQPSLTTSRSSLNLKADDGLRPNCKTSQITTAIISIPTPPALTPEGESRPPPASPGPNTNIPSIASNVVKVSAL
Sequence of Human Kv4.3/KChIP2 (Q9NS61 whole entry partner): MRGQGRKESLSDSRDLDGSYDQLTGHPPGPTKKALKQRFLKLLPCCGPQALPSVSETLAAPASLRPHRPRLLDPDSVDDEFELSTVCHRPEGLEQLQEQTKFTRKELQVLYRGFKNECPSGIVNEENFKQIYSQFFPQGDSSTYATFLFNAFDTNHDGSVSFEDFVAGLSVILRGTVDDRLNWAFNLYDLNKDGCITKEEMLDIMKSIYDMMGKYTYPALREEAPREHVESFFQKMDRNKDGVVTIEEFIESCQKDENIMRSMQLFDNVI
Sequence of Human Kv1.5 (P22460 whole entry): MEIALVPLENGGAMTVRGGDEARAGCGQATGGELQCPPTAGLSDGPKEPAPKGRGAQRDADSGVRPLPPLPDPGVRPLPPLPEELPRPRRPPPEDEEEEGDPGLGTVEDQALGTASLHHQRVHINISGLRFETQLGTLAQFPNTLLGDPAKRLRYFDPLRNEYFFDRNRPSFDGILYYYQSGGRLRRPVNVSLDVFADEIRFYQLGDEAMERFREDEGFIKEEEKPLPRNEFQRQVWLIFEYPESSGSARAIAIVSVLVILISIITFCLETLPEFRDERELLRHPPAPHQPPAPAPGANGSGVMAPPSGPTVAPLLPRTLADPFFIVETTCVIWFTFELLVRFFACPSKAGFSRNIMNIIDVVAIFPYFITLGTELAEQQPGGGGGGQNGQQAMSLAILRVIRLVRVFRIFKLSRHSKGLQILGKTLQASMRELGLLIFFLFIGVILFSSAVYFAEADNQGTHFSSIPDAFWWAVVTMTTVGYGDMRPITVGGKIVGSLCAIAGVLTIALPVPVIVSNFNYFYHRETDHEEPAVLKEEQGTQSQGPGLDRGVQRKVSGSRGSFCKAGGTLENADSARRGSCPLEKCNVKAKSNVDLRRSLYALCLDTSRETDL
Method for CYP2B6: After addition of prototypical CYP substrates in 250 μL, samples were incubated for 10 min (CYP1A2, CYP2B6, CYP2C9, and CYP3A4) or 20 min (CYP2C8) at 37° C. in 5% CO2. […] Samples were analyzed for metabolite formation by LC-MS/MS. The results were expressed using the peak area ratio of analyte to internal standard, based on the calibration curves.
where Range=fitted uninhibited value, s=slope factor, x=inhibitor concentration, y=% control activity.
From the text for Human Kv1.5: (§1) The parameters measured were the maximum inward current evoked on stepping to −20 mV from the 1st and 26th pulse. Human Kv4.3/KChIP2 currents were evoked from a holding potential of −80 mV by a series of four 500 msec pulses to 0 mV using a 1000 msec interval between pulses. The parameter measured was the amplitude of the outward current 50 msec after the onset of the 4th voltage step to 0 mV. Human Cav1.2 currents were evoked by 2 pulses to −10 mV from a holding potential of −100 mV. The parameters measured were the maximum inward currents evoked on stepping to −10 mV from the holding potential of −100 mV for the 1st and 2nd pulse. Human Kv1.5 currents were evoked by a single pulse from a holding potential of −80 mV to a potential of 0 mV for 4 sec before returning to −80 mV. The parameters measured were the maximum amplitude of outward currents evoked at the beginning of the voltage pulse and at the end of the voltage step from −80 mV to 0 mV. Human KCNQ1/minK currents were evoked by a single pulse delivered from a holding potential of −80 mV to +60 mV for 4 sec before returning to −80 mV. The parameter measured was the maximum outward current evoked on stepping to +60 mV from the holding potential of −80 mV. hERG currents were evoked by a three-pulse protocol where voltage was first stepped to +40 mV for two sec from a holding potential of −80 mV to inactivate hERG channels. […]
From the text for Human Kv4.3/KChIP2: as §1

Regarding `CO[C@H]1/C=C\C=C(/C)C(=O)NC2=CC(=O)C(NCCCCCC[P+](c3ccccc3)(c3ccccc3)c3ccccc3)=C(C[C@@H](C)C[C@H](OC)[C@H](O)[C@@H](C)/C=C(\C)[C@@H]1OC(N)=O)C2=O` [Gamitrinib, 17-Demethoxy-17-((6-(triphenylphosphonio)hexyl)amino)geldanamycin], the “ECG changes in PR interval, QRS duration, QT interval, or heart rate” value with beagle dogs (d 32 of dosing at 1.25, 3.33 or 6.25 mg/kg/dose, d 11 of recovery at 6.25) is “No Gamitrinib-related ECG changes”. Further, in the series on beagle dogs (dogs), the “rhythm abnormalities or qualitative ECG changes” value is on record as “No other rhythm abnormalities or qualitative ECG changes were observed”. Moreover, the “prolongation of QTc interval” value in the series on beagle dogs (female dogs 6.25 mg/kg/dose, both sexes 1.25 or 3.33 mg/kg/dose) was “No Gamitrinib-related prolongation of QTc interval”; in the series on beagle dogs (one out of 5 male dogs at 6.25 mg/kg/dose, d 32 of dosing) it was 17 ms; in the series on beagle dogs (one out of 5 male dogs at 6.25 mg/kg/dose, d 32 of dosing, reversed in recovery), 7%. Further, the inhibition at 10 µM at Human Kv4.3/KChIP2 stood at 6.8 ± 2.2%; on Human Kv1.5 it was 6.6 ± 1.3%; at hERG [4] (human, HEK293 cells stably transfected with hERG, pH 7.4, 10 μM, transfected HEK293 cells, mean±SD), 81.8 ± 1.88%; on hERG [5], 37.9 ± 1.7%. The same molecule gave a recovery in [1] of 82.8 ± 3%. The “stability in human plasma” value in [1] was found to be 91.4%. Moreover, in series [2] (0.5 μM, human liver microsomes), the “elimination rate constant (k)” value is listed as 0.041. The “intrinsic clearance (CLint)” value in series [2] (0.5 μM, human liver microsomes) came to 3.30 mL/min/g. Also, the half-life at 0.5 μM in [2] (human, liver microsomes) is 16.7 min. Further, the “therapeutically effective dose in mice” value with tumor was 10 mg/kg. Besides, the “stable (time of storage)” value in series [3] (injectable suspension at −20° C.) was not below 24 weeks. In [3] (injectable suspension produced by microfluidization), this molecule came in with a particle size of less than 200 nm. Moreover, on hERG [4] (hERG IC50 3.5 μM higher than tumor IC50), the “hERG IC50 relative to IC50 of inhibition of tumor growth in NCI 60-cell line screen” value is “up to 20 fold”. In addition, the inhibition at 0.5 µM on hERG [4] (human, HEK293 cells stably transfected with hERG, pH 7.4, 0.5 μM, transfected HEK293 cells, mean±SD) is -0.68 ± 3.95%. For the same molecule, the inhibition at 1 µM against hERG [4] (human, HEK293 cells stably transfected with hERG, pH 7.4, 1 μM, transfected HEK293 cells, mean±SD) worked out at 11.7 ± 6.51%. On hERG [4] (human, HEK293 cells stably transfected with hERG, pH 7.4, 5 μM, transfected HEK293 cells, mean±SD), the inhibition at 5 µM was 66 ± 6.78%. Besides, the IC50 on hERG [4] (patch-clamp, transfected HEK293 cells, read-out: IC50 of hERG inhibition) came to 3.5 µM; on CYP2B6 it was 16 µM.

What is called half-life is the time needed for the level to fall by half in the phase considered. The term IC50 denotes the point on the concentration scale where inhibition reaches its midpoint.
